Test results taken from patent US20020103251A1, “Cholesterol-lowering therapy” (priority 1997, published 2002).

Legend:
[1] = system: men and women with average to mildly elevated total and LDL-cholesterol, below average HDL-cholesterol and no clinical evidence of atherosclerotic …; experiment: AFCAPS/TexCAPS double-blind, randomized, placebo controlled primary prevention trial of lovastatin; assay type: in vivo, human
From the text: The following is a description of a clinical trial referred to herein as “AFCAPS/TexCAPS” or “AFCAPS” employing lovastatin to exemplify the methods of the present invention.
AFCAPS/TexCAPS was a primary prevention endpoint event trial which: (1) included unstable angina as a primary endpoint, reflecting the trend to treat coronary heart disease aggressively before a myocardial infarction has occurred; 2) involved aggressive pharmacologic intervention, with titration, to target an LDL-cholesterol goal lower than current National Cholesterol Education Panel guidelines for primary prevention; and 3) included a cohort comprised of men and women with a broad age range encompassing the elderly and included persons with a lipid profile consisting of average total and LDL-cholesterol, below average HDL-cholesterol levels; total cholesterol/HDL-cholesterol ratio greater than or equal to 4.5, with a baseline mean ratio of 6.1 for the cohort; and LDL/HDL-cholesterol ratio greater than or equal to 4.
Entrance inclusion criteria were LDL-cholesterol 130-190 mg/dl (or <130 if the ratio of total cholesterol/HDL is >6) and HDL-cholesterol ≦45 mg/dl for men and ≦47 mg/dl for women.
AFCAPS/TexCAPS was a double-blind, randomized, placebo controlled trial designed and powered to investigate whether chronic lipid-lowering, with lovastatin will decrease the rate of first acute major coronary events (e.g. sudden cardiac death, fatal and non-fatal myocardial infarction and unstable angina) compared to intervention with diet alone during at least 4.5 years of follow-up in a cohort without clinical evidence of atherosclerotic cardiovascular disease and with average to mildly elevated total cholesterol, average to midly elevated LDL-cholesterol, and below average HDL-cholesterol. Secondary objectives included whether chronic treatment with lovastatin, compared to placebo, would decrease cardiovascular morbidity and mortality across the spectrum of clinical events, by measuring the rates of: (1) fatal and non-fatal coronary revascularization procedures (2) unstable angina, (3) fatal and non-fatal myocardial infarction, (4) fatal and non-fatal cardiovascular events, (5) fatal and non-fatal coronary events.
All participants underwent dietitian taught group instruction in the American Heart Association Step 1 diet commencing at least 12 weeks prior to randomization (Week -12) and reinforced at Weeks-4 and -2. Baseline observations included collection of medical history, health habit and demographic data, physical exam, eye exam (San Antonio clinic only), chest X-ray, mammogram (women), electrocardiogram and analysis of lipids/lipoproteins, hematology, blood chemistry and urine. A 2-week placebo baseline run-in was followed by randomization of eligible compliant participants to treatment with lovastatin or placebo.
Participants included 6605 men and women with normal to mildly elevated total and LDL-cholesterol and below average HDL-cholesterol defined as: total cholesterol 180-264 mg/dl, LDL-cholesterol 130-190 mg/dl, HDL-cholesterol ≦45 mg/dl for men and ≦47 mg/dl for women and triglycerides ≦400 mg/dl. All lipid/lipoprotein entrance criteria had to be met on average at both four and two weeks prior to randomization (after at least eight weeks of diet therapy). In addition, for both total and LDL-cholesterol, the two eligibility determinations had to be within 15% of each other.
Excluded for clinical evidence of atherosclerotic cardiovascular disease were men and women who had: prior history of myocardial infarction; angina; claudication; cerebrovascular accident; or transient ischemic attack. Also excluded were those aged >73 years or <45 years (men) or <55 years (women) or those with secondary hyperlipoproteinemia, nephrotic syndrome, uncontrolled or insulin-dependent diabetes mellitus or uncontrolled hypertension.

[2] = system: patients with hypercholesterolemia and/or CHD; conditions: coronary and carotid arteries; cited from earlier work
[3] = Secondary Endpoint: Fatal and Nonfatal Coronary Events, lovastatin vs placebo
[4] = first acute major coronary events, baseline HDL-C tertile 34.5-39.5 mg/dl
[5] = first acute major coronary events, baseline HDL-C tertile <34.0 mg/dl
[6] = first acute major coronary events, baseline HDL-C tertile >39.5 mg/dl
[7] = first acute major coronary events, baseline LDL-C tertile 142.0-156.8 mg/dl
[8] = first acute major coronary events, baseline LDL-C tertile <142 mg/dl
[9] = first acute major coronary events, baseline LDL-C tertile >156.9 mg/dl

CC[C@H](C)C(=O)O[C@H]1C[C@@H](C)C=C2C=C[C@H](C)[C@H](CC[C@@H]3C[C@@H](O)CC(=O)O3)[C@H]21 [lovastatin]
Relative Risk (C.I.) ([1]; Primary Endpoint: acute major coronary events, lovastatin 20-40 mg once a day vs placebo, median 5.2 years): 0.63 (0.50, 0.79),
Relative Risk (C.I.) ([1]; Secondary Endpoint: Fatal and Nonfatal Cardiovascular Events, lovastatin vs placebo): 0.75 (0.62, 0.91),
Relative Risk (C.I.) [1, 3]: 0.75 (0.61, 0.92),
Risk Reduction [1, 3]: 25%
Relative Risk (C.I.) ([1]; Secondary Endpoint: Fatal and Nonfatal MI, lovastatin vs placebo): 0.60 (0.43, 0.83),
Relative Risk (C.I.) ([1]; Secondary Endpoint: Revascularizations, lovastatin vs placebo): 0.67 (0.52, 0.85),
Relative Risk (C.I.) ([1]; Secondary Endpoint: Unstable Angina, lovastatin vs placebo): 0.68 (0.48, 0.95),
% change in HDL-C from baseline to the one year point ([1]; baseline HDL-C tertile 34.5-39.5 mg/dl): 6.2%
% change in HDL-C from baseline to the one year point ([1]; baseline HDL-C tertile <34.0 mg/dl): 7.4%
% change in HDL-C from baseline to the one year point ([1]; baseline HDL-C tertile >39.5 mg/dl): 4.3%
% change in LDL-C from baseline to the one year point ([1]; baseline LDL-C tertile 142.0-156.8 mg/dl): −26.0%
% change in LDL-C from baseline to the one year point ([1]; baseline LDL-C tertile <142 mg/dl): −20.1%
% change in LDL-C from baseline to the one year point ([1]; baseline LDL-C tertile >156.9 mg/dl): −28.9%
dependence of risk reduction on baseline LDL-C and HDL-C ([1]; first acute major coronary events by LDL-C and HDL-C tertiles at randomization): independent of baseline LDL-C and HDL-C
Relative Risk (95% C.I.) [1, 4]: 0.57
Risk Reduction [1, 4]: 43%
Relative Risk (95% C.I.) [1, 5]: 0.55
Risk Reduction [1, 5]: 45%
Relative Risk (95% C.I.) [1, 6]: 0.85
Risk Reduction [1, 6]: 15%
Relative Risk (95% C.I.) [1, 7]: 0.64
Risk Reduction [1, 7]: 36%
Relative Risk (95% C.I.) [1, 8]: 0.66
Risk Reduction [1, 8]: 34%
Relative Risk (95% C.I.) [1, 9]: 0.59
Risk Reduction [1, 9]: 41%
progression of atherosclerotic lesions [2]: slow the progression of atherosclerotic lesions
